We go through 12 molecules from US20230278997A1, “BICYCLO[1.1.1]PENTANE COMPOUNDS FOR THE TREATMENT AND PROPHYLAXIS OF HEPATITIS B VIRUS INFECTION” (Hoffmann-La Roche Inc., priority 2020, published 2023).

Where two headings read alike, the source gives them in different places. Some results are limits rather than exact numbers.

Series [1] in a line: Single dose pharmacokinetics (PK) study in male C57BL/6 mouse. Type of series: in vivo. To be noted: for clearance / half-life / Vd / AUC(0-t): male; for clearance / half-life / Vd: C57BL/6, plasma; for clearance / half-life / Vd / F: mouse; for Vd: read-out: VSS; for AUC(0-t): C57BL/6, mouse plasma; for F: PO 30 mg/kg vs IV, dose normalized AUC0-last. The protocol:
Single Dose Pharmacokinetics (PK) Study in Male C57BL/6 Mouse Pharmacokinetic properties of selected compounds were assessed by single dose PK studies in Male C57BL/6 mouse (vendor: Beijing Vital River Laboratory Animal Technology Co., Ltd). Briefly, two groups of animals were administered a single dose of respective compound intravenously (IV, bolus) at 1 mg/kg or orally (PO, by gavage) at 10 mg/kg or 30 mg/kg. […] After centrifugation, the resulting plasma was transferred to clean tubes for bioanalysis with LC/MS/MS. The pharmacokinetic parameters were calculated using non-compartmental analysis. The volume of distribution (Vss), half-life (T1/2) and clearance (CL) were obtained based on the plasma concentration-time curve after IV dose. The peak concentration (Cmax) was recorded directly from experimental observations after PO dose. The area under the plasma concentration-time curve (AUC0-last and AUC0-24 h) was calculated using the linear trapezoidal rule up to the last detectable concentration. The bioavailability (F) was calculated based on the dose normalized AUC0-last after IV and PO dose. The Vss of a drug represents the degree to which a drug is distributed in body tissue rather than the plasma. Vss is directly proportional with the amount of drug distributed into tissue. A higher Vss indicates a greater amount of tissue distribution.

The nature of series [2]: Human microsome stability assay. Format: in vitro ADME. The following applies: 1 μM compound, 0.5 mg/mL microsomal protein, 37° C.; detection limit 6.15 mL/min/kg. Here is the method:
Human Microsome Stability Assay The human microsomal stability assay is used for early assessment of metabolic stability of a test compound in human liver microsomes. Human liver microsomes (Cat. […] The reactions were initiated by adding NADPH regenerating system. […] Following precipitation and centrifugation, the amount of compound remaining in the samples were determined by LC-MS/MS. Controls of no NADPH regenerating system at zero and 30 minutes were also prepared and analyzed.

The subject of the next series is HBeAg. Briefly: microbe, parasite or virus in culture. Format: cell-based, HBV. The following applies: Hepatitis B virus, read-out: HBeAg IC50.
Series [3] relates to primary human hepatocyte (PHH). Briefly: Cytotoxicity in PHH natural infection assay (Cell Counting Kit-8). Type of series: cell-based. To be noted: therapeutic index; CC50 by CCK8 in PHH over HBsAg IC50. Here is the method: Detailed procedures regarding primary human hepatocyte (PHH) HBV natural infection assay are described as below. One tube of frozen PHH (10 million cells) was thawed in 37° C. water bath and then transferred to 20 mL of PHH thawing medium (Sigma, InVitroGRO HT Medium, Cat. 503319) with gently mixing. The cells were then centrifuged at […] for 5 min, the supernatant was discarded and the tube was refilled with 25 mL of PHH plating medium (Sigma, InVitroGRO CP Medium, Cat. 503317). The tube was shaken very gently to re-suspend all cells, and then 50 μl of cells were transferred to each well of a 384-well collagen I coated plate with appropriate liquid handling equipment, e.g. Integra VIAFLO384 or Agilent Bravo. The cells were then cultured for 24 hours in a cell incubator. For HBV infection, after PHH attachment on the culture plate, the plating medium was removed and replenished with PHH culture medium containing HBV virus. The PHH culture medium was prepared with Dulbecco's Modified Eagle Medium (DMEM)/F12 (1:1 in volume ratio) containing 10% fetal bovine serum (Gibco, Cat.10099141), 5 ng/mL human epidermal growth factor (Gibco, Cat.PHG031 IL), 20 ng/mL dexamethasone (Sigma, Cat.D4902-100 mg), 250 ng/mL human recombinant insulin (Gibco, Cat.41400045) and 100 U/mL penicillin. HBV virus at 200 genome equivalent (GE) per cell with 4% PEG8000 (Sigma, Cat.P1458) containing culture medium were added to the PHH culture medium for infection. The cells were then cultured for 24 hours in cell incubator. Then the cell culture supernatant was removed. The HBV-infected PHH were cultured with sandwich culture method with PHH culture medium containing 1% DMSO and 0.25 mg/mL matrix gel for 72 hours. The supernatant was then refreshed with PHH culture medium containing different concentrations of testing compounds for two times with 72-hour interval. At the end of treatment, the supernatant was collected for viral markers measurements, including HBsAg, HBeAg, HBV DNA and cytotoxicity. HBsAg and HBeAg were detected using alphalisa method using their specific antibodies. For HBV DNA detection, HBV DNA Quantitative Fluorescence Diagnostic Kit (Sansure Biotech Inc.) was used following the manufacture's protocol. Cytotoxicity was determined using Cell Counting Kit-8 (CCK8, Dojindo Molecular Technologies, Inc.).

A further series relates to HBsAg. Briefly: microbe, parasite or virus in culture. Type of series: cell-based, HBV. The following applies: Hepatitis B virus, read-out: HBsAg IC50.
The mark [4] stands for this setting: IV bolus 1 mg/kg, read-out: IV AUC0-24h.
Setting [5] is: PO 30 mg/kg single dose, read-out: PO AUC0-24h.

As for `CS(=O)(=O)C1(c2ccc(C(=O)NC34CC(c5nc(-c6ccc(Cl)cc6)cs5)(C3)C4)o2)CC1` [Example 1, N-[3-[4-(4-chlorophenyl)thiazol-2-yl]-1-bicyclo[1.1.1]pentanyl]-5-(1-methylsulfonylcyclopropyl)furan-2-carboxamide], in series [1] (IV bolus 1 mg/kg), the clearance is 0.2 mL/min/kg, the half-life was 23.6 h and the Vd amounted to 0.4 L/kg. Moreover, in series [1] (setting [4]), the AUC(0-t) is 42.7 µg·h/mL. The AUC(0-t) in series [1] (setting [5]) was 1310 µg·h/mL. The F in series [1] was found to be 102%. Besides, in series [2], the “Clearance of human microsome” value is listed as at most 6.15 mL/min/kg. Besides, the half-maximal inhibitory concentration (IC50) in the series on HBeAg is 120 nM. Besides, in series [3], the “TI (CC50/IC50 HBsAg)” value came out at 27.88. For the same molecule, the half-inhibitory concentration (IC50) with HBsAg is 160 nM.
Consider `CS(=O)(=O)C1(c2ccc(C(=O)NC34CC(c5csc(-c6ccccc6)n5)(C3)C4)o2)CC1` [Example 26, 5-(1-methylsulfonylcyclopropyl)-N-[3-(2-phenylthiazol-4-yl)-1-bicyclo[1.1.1]pentanyl]furan-2-carboxamide], for which, in series [2], the “Clearance of human microsome” value is at most 6.15 mL/min/kg. Besides, the IC50 with HBeAg was 530 nM; with HBsAg, 780 nM. Moreover, the “TI (CC50/IC50 HBsAg)” value in series [3] is listed as 8.91.
As to `CS(=O)(=O)C1(c2ccc(C(=O)NC34CC(c5csc(-c6ccc(Cl)cc6)n5)(C3)C4)o2)CC1` [Example 27, N-[3-[2-(4-chlorophenyl)thiazol-4-yl]-1-bicyclo[1.1.1]pentanyl]-5-(1-methylsulfonylcyclopropyl)furan-2-carboxamide], the “Clearance of human microsome” value in series [2] is at most 6.15 mL/min/kg. Moreover, the IC50 was found to be 90 nM in the series with HBeAg and 130 nM with HBsAg. In series [3], the “TI (CC50/IC50 HBsAg)” value is 39.46.
On to `CS(=O)(=O)C1(c2ccc(C(=O)NC34CC(c5cnn(-c6ccc(Cl)cc6)n5)(C3)C4)o2)CC1` [Example 30, N-[3-[2-(4-chlorophenyl)triazol-4-yl]-1-bicyclo[1.1.1]pentanyl]-5-(1-methylsulfonylcyclopropyl)furan-2-carboxamide], for which the clearance in series [1] (IV bolus 1 mg/kg) is 0.19 mL/min/kg. The same molecule gave a half-life in series [1] (IV bolus 1 mg/kg) of 48.4 h. In addition, in series [1] (IV bolus 1 mg/kg), the Vd is 0.74 L/kg. Also, the AUC(0-t) in series [1] (setting [4]) was determined as 27 µg·h/mL; in series [1] (setting [5]), 370 µg·h/mL. Also, the F in series [1] stood at 46%. In addition, in series [2], the “Clearance of human microsome” value was at most 6.15 mL/min/kg. Moreover, the IC50 came out at 40 nM in the series on HBeAg and 60 nM in the series on HBsAg. The “TI (CC50/IC50 HBsAg)” value in series [3] came out at 148.67.
Regarding `CS(=O)(=O)C1(c2ccc(C(=O)NC34CC(c5nc(-c6ccc(Cl)cc6)no5)(C3)C4)o2)CC1` [Example 32, N-[3-[3-(4-chlorophenyl)-1,2,4-oxadiazol-5-yl]-1-bicyclo[1.1.1]pentanyl]-5-(1-methylsulfonylcyclopropyl)furan-2-carboxamide], in series [1] (IV bolus 1 mg/kg), the clearance was found to be 0.43 mL/min/kg, the half-life was 17.8 h and the Vd amounted to 0.64 L/kg. Also, the AUC(0-t) in series [1] (setting [4]) was 24.1 µg·h/mL. Also, the AUC(0-t) in series [1] (setting [5]) turned out to be 249 µg·h/mL. In addition, in series [1], the F was determined as 35%. Further, in series [2], the “Clearance of human microsome” value was at most 6.15 mL/min/kg. For the same molecule, the IC50 in the series on HBeAg was 40 nM. Moreover, the “TI (CC50/IC50 HBsAg)” value in series [3] was 112.00. Moreover, the IC50 with HBsAg was determined as 40 nM.
Take `CS(=O)(=O)Cc1nsc(C(=O)NC23CC(c4nc(-c5ccc(Cl)cc5)no4)(C2)C3)n1` [Example 33, N-[3-[3-(4-chlorophenyl)-1,2,4-oxadiazol-5-yl]-1-bicyclo[1.1.1]pentanyl]-3-(methylsulfonylmethyl)-1,2,4-thiadiazole-5-carboxamide]: the “Clearance of human microsome” value in series [2] is given as at most 6.15 mL/min/kg. Besides, the IC50 in the series with HBeAg turned out to be 370 nM; with HBsAg it was 440 nM. The “TI (CC50/IC50 HBsAg)” value in series [3] is listed as above 22.73.
Turning to `CS(=O)(=O)C1(c2nsc(C(=O)NC34CC(c5nc(-c6ccc(F)cc6)no5)(C3)C4)n2)CC1` [Example 35, N-[3-[3-(4-fluorophenyl)-1,2,4-oxadiazol-5-yl]-1-bicyclo[1.1.1]pentanyl]-3-(1-methylsulfonylcyclopropyl)-1,2,4-thiadiazole-5-carboxamide], the “Clearance of human microsome” value in series [2] is at most 6.15 mL/min/kg. Besides, the figures for the IC50 in the series on HBeAg and in the series on HBsAg were 40 nM and 50 nM, respectively. Further, in series [3], the “TI (CC50/IC50 HBsAg)” value is given as 79.80.
In series [1] (IV bolus 1 mg/kg), `CS(=O)(=O)C1(c2ccc(C(=O)NC34CC(c5noc(-c6ccc(Cl)cc6)n5)(C3)C4)o2)CC1` [Example 40, N-[3-[5-(4-chlorophenyl)-1,2,4-oxadiazol-3-yl]-1-bicyclo[1.1.1]pentanyl]-5-(1-methylsulfonylcyclopropyl)furan-2-carboxamide] had a clearance of 0.85 mL/min/kg. Further, in series [1] (IV bolus 1 mg/kg), the half-life is 12 h. Moreover, the Vd in series [1] (IV bolus 1 mg/kg) turned out to be 0.83 L/kg. Also, the AUC(0-t) in series [1] (setting [4]) worked out at 14.9 µg·h/mL; in series [1] (setting [5]), 80.8 µg·h/mL. In series [1], this molecule had an F of 18%. The “Clearance of human microsome” value in series [2] is at most 6.15 mL/min/kg. Besides, the values for the IC50 in the series on HBeAg and with HBsAg were 100 nM and 140 nM, respectively. The “TI (CC50/IC50 HBsAg)” value in series [3] came out at 46.00.
As for `CS(=O)(=O)C1(c2ccc(C(=O)NC34CC(c5ccn(-c6ccc(Cl)cc6)n5)(C3)C4)o2)CC1` [Example 42, N-[3-[1-(4-chlorophenyl)pyrazol-3-yl]-1-bicyclo[1.1.1]pentanyl]-5-(1-methylsulfonylcyclopropyl)furan-2-carboxamide], in series [2], the “Clearance of human microsome” value came to 8.21 mL/min/kg. Moreover, the figures for the IC50 in the series with HBeAg and in the series with HBsAg were 340 nM and 590 nM, respectively. The “TI (CC50/IC50 HBsAg)” value in series [3] stood at 13.39.
For `CS(=O)(=O)C1(c2nsc(C(=O)NC34CC(c5ccn(-c6ccc(Cl)cc6)n5)(C3)C4)n2)CC1` [Example 43, N-[3-[1-(4-chlorophenyl)pyrazol-3-yl]-1-bicyclo[1.1.1]pentanyl]-3-(1-methylsulfonylcyclopropyl)-1,2,4-thiadiazole-5-carboxamide], the “Clearance of human microsome” value in series [2] is reported as at most 6.15 mL/min/kg. The IC50 in the series on HBeAg was determined as 80 nM; with HBsAg, 90 nM. In series [3], the “TI (CC50/IC50 HBsAg)” value is above 111.11.
Turning to `CS(=O)(=O)C1(c2ccc(C(=O)NC34CC(c5nnn(-c6ccc(Cl)cc6)n5)(C3)C4)o2)CC1` [Example 44, N-[3-[2-(4-chlorophenyl)tetrazol-5-yl]-1-bicyclo[1.1.1]pentanyl]-5-(1-methylsulfonylcyclopropyl)furan-2-carboxamide], the “Clearance of human microsome” value in series [2] is listed as at most 6.15 mL/min/kg. For the same molecule, the IC50 in the series on HBeAg was 270 nM; in the series on HBsAg it was 350 nM. In series [3], the “TI (CC50/IC50 HBsAg)” value is on record as 12.20.
As to `CS(=O)(=O)C1(c2ccc(C(=O)NC34CC(c5ccnc(-c6ccc(Cl)cc6)n5)(C3)C4)o2)CC1` [Example 47, N-[3-[2-(4-chlorophenyl)pyrimidin-4-yl]-1-bicyclo[1.1.1]pentanyl]-5-(1-methylsulfonylcyclopropyl)furan-2-carboxamide], the “Clearance of human microsome” value in series [2] is at most 6.15 mL/min/kg. In addition, the IC50 came out at 140 nM in the series on HBeAg and 150 nM in the series on HBsAg. The “TI (CC50/IC50 HBsAg)” value in series [3] is reported as 59.67.
